Key:
hERG = molecular target: T1, hERG (Homo sapiens, UniProt Q12809); experiment: Competitive radioligand binding, hERG; settings: HEK293 membranes, 3H-dofetilide 5 nM
T1 construct: expressed in transfected cells; host or cells: HEK293 (membrane fraction)
Description: (§1) Competitive radioligand binding assays were used to determine the affinity of the test compounds for a particular receptor. Various concentrations of the non-labelled test compound were added to the incubation mixture with the membrane fraction, containing the receptor of interest, and a fixed low concentration (nM) of the radioligand. During the incubation the radioligand bound to the receptor, but this was inhibited by the non-labelled test compound in proportion to its binding affinity and concentration.
(§2) Cell lines were established that stably express the human variant of the receptor under investigation after transfection with the appropriate cDNA (Table 1). Transfected cells were grown under standard culture conditions, and membrane fractions were obtained upon centrifugation and homogenisation of the cells. Optimal membrane dilutions for binding studies were determined and aliquots were stored at −70° C. until use. In a 96-well plate format, the appropriate radioligand was added to the membrane preparation containing the receptor under investigation. Compound solutions were prepared in DMSO, and diluted 100-fold into the multiwell plate to a final test concentration of 10^−9 to 10^−5 M. After incubation with the test compound, the unbound radioligand was removed by filtration on G/F filters with a Filtermate 96. Microscint™ was added to the washed filter plates and the radioactivity bound to the receptor was measured by liquid scintillation counting in a TopCount (Packard). To measure the Non-Specific Binding (NSB), a high concentration of the non-radiolabeled ligand was added to wells containing the membrane fraction and the radioligand.
(§3) From this, the pIC50 value (inhibitory concentration causing 50% displacement of specific binding) was determined, as well as an estimate of the slope of the plot (Hill coefficient).

5HT3A/B = molecular target: T2, 5HT3A/B (Homo sapiens, UniProt O95264+P46098); experiment: Competitive radioligand binding, 5HT3A/B; settings: HEK293 membranes, 3H-GR65630 0.5 nM; for IC50: read-out: pIC50 5HT3A/B (converted)
T2 construct: expressed in transfected cells; host or cells: HEK293 (membrane fraction)
T2 sequence (P46098 24-478): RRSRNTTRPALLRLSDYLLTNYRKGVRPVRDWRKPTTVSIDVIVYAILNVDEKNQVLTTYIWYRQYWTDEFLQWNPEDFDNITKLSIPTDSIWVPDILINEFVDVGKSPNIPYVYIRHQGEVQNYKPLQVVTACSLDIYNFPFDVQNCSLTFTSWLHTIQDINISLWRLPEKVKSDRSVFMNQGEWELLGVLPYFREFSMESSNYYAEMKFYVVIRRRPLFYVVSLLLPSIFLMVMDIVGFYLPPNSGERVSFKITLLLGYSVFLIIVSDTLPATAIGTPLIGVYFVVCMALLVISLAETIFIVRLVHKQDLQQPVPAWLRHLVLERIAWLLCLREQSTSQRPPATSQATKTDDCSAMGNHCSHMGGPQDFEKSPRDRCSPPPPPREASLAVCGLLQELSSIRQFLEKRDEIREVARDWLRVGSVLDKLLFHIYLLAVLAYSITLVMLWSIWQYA
T2 sequence (O95264 22-441): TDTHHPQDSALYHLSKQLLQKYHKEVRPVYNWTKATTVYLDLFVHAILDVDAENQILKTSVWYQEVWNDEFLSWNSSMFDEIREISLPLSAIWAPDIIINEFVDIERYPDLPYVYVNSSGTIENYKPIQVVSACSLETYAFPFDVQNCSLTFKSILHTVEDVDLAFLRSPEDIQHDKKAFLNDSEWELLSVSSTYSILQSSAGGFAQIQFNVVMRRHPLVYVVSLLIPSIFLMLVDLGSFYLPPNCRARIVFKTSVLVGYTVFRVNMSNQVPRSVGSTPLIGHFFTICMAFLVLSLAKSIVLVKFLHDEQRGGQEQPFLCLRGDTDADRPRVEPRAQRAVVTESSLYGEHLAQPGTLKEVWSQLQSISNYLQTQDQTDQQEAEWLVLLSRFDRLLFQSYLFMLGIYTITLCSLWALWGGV
Description: as §1, §2
Using in house developed software, a best-fit curve was fitted by a minimum sum of squares method to the plot of % inhibition vs. concentration of the test compound. From this, the pIC50 value (inhibitory concentration causing 50% displacement of specific binding) was determined, as well as an estimate of the slope of the plot (Hill coefficient).

Alpha2B = molecular target: T3, Alpha2B (Homo sapiens, UniProt P18089); experiment: Competitive radioligand binding, Alpha2B; settings: CHO membranes, 3H-rauwolscine 1 nM; for IC50: read-out: pIC50 Alpha2B (converted)
T3 construct: expressed in transfected cells; host or cells: CHO (membrane fraction)
T3 sequence (P18089 1-450): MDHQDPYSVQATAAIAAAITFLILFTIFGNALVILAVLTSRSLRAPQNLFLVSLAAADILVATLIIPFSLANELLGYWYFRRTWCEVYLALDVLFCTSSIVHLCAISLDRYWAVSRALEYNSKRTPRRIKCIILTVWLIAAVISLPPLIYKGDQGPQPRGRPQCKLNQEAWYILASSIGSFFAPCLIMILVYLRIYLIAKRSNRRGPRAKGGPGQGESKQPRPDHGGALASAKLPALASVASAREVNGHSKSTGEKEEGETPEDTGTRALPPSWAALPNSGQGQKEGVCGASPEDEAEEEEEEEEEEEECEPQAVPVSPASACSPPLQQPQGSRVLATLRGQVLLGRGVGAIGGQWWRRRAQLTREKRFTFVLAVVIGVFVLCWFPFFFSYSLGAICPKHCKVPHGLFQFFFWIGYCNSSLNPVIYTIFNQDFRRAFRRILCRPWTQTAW
Description: as §1, §2

5HT2A = molecular target: T4, 5HT2A (Homo sapiens, UniProt P28223); experiment: Competitive radioligand binding, 5HT2A; settings: NIH3T3 membranes, 3H-ketanserin 2 nM; read-out: pIC50 5HT2A (converted)
T4 construct: expressed in transfected cells; host or cells: NIH3T3 (membrane fraction)
Description: as §1, §2, §3

5HT2B = 5HT2B (Homo sapiens, UniProt P41595); experiment: Competitive radioligand binding, 5HT2B; set-up: expressed in transfected cells; host or cells: CHO (membrane fraction); settings: CHO membranes, 3H-5-HT 4 nM; read-out: pIC50 5HT2B (converted)
Description: as §1, §2, §3

5HT2C = molecular target: T5, 5HT2C (Homo sapiens, UniProt P28335); experiment: Competitive radioligand binding, 5HT2C; settings: CHO membranes, 3H-mesulergin 1 nM; read-out: pIC50 5HT2C (converted)
T5 construct: expressed in transfected cells; host or cells: CHO (membrane fraction)
T5 sequence (P28335 33-458): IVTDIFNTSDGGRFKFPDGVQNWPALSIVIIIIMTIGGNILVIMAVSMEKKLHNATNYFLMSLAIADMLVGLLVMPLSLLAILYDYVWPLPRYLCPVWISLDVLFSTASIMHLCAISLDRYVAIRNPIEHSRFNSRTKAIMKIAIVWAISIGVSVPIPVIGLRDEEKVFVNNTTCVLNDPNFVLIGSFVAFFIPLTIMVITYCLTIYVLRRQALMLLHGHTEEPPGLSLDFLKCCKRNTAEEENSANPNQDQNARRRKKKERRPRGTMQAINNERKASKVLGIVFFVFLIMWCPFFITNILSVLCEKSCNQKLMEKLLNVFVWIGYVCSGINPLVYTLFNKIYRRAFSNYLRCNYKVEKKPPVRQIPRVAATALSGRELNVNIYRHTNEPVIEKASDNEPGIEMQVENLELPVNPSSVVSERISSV
Description: as §1, §2, §3

5HT2B, sequence (P41595 whole entry): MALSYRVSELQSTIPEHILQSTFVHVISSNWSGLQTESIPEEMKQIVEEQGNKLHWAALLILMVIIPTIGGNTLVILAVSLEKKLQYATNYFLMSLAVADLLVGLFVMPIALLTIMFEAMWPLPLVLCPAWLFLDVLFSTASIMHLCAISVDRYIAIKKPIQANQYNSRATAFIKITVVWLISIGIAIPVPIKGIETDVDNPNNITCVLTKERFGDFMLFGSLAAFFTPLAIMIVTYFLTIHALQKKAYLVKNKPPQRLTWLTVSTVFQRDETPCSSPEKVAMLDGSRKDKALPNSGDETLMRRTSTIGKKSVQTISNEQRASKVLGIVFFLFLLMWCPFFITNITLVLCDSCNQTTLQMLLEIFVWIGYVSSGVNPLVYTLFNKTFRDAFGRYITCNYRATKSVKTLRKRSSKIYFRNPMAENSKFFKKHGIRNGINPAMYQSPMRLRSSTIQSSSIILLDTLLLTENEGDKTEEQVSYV
T4 sequence (P28223 whole entry): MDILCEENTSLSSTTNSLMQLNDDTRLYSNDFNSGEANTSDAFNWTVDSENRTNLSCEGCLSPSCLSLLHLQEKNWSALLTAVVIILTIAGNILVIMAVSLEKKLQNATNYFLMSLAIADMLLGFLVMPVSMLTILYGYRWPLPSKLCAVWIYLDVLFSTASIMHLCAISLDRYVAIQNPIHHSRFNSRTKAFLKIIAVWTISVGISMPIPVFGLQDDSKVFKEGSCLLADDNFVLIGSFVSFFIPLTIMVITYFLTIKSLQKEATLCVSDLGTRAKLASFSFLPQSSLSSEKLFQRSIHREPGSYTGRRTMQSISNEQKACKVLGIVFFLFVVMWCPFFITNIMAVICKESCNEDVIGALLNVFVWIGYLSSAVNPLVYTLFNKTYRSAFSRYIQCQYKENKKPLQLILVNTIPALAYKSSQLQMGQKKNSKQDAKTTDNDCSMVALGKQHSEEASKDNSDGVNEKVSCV
T1 sequence (Q12809 whole entry): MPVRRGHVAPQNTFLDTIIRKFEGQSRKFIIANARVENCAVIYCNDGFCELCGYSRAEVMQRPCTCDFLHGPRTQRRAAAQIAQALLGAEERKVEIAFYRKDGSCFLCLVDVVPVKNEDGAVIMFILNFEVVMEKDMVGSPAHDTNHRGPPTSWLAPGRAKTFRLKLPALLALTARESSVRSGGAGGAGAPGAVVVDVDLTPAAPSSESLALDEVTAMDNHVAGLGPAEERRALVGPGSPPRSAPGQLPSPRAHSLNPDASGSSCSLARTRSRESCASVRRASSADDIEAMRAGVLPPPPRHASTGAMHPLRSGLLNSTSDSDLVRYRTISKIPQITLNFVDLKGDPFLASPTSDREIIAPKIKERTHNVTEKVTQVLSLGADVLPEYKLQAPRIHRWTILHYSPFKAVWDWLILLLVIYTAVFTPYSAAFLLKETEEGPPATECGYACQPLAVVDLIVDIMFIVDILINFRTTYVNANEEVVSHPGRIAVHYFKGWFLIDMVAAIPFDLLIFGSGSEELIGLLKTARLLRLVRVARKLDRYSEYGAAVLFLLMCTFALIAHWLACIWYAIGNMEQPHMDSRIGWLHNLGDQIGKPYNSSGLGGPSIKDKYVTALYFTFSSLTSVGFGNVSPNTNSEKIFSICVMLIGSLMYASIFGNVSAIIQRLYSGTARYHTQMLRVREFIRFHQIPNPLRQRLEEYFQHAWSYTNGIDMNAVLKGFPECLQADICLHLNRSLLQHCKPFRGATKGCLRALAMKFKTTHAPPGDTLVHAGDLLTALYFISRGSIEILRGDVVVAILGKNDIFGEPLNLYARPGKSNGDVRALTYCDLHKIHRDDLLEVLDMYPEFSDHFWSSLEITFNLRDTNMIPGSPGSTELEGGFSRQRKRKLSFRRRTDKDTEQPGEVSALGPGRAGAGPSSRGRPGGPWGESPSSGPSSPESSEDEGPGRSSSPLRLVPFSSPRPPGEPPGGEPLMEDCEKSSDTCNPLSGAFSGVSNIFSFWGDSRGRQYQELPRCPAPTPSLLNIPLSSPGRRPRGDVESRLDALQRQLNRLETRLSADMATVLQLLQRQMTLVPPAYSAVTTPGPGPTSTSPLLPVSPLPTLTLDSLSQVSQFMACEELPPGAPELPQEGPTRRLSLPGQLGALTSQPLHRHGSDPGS

Q: COc1cc(N)c(Cl)cc1C(=O)N[C@@H]1CCN(CCCOc2ccc(F)cc2)C[C@H]1F (racemic) [(±)-7, trans-4-amino-5-chloro-N-{3-fluoro-1-[3-(4-fluorophenoxy)-propyl]-piperidin-4-yl}-2-methoxybenzamide] was tested. Which IC50 (hERG) did it give?
A: 234 nM

Q: What about the IC50 (5HT3A/B) of the same compound?
A: > 10 µM

Q: What about the IC50 (Alpha2B) of the same compound?
A: 2.51 µM

Q: And the IC50 (5HT2A)?
A: 112 nM

Q: And the IC50 (5HT2B)?
A: 107 nM

Q: What about the IC50 (5HT2C) of the same compound?
A: 1.82 µM

Q: For COc1cc(N)c(Cl)cc1C(=O)N[C@H]1CCN(CCCOc2ccc(F)cc2)C[C@H]1F (racemic) [(±)-12, cis-4-amino-5-chloro-N-{3-fluoro-1-[3-(4-fluorophenoxy)-propyl]-piperidin-4-yl}-2-methoxybenzamide], which IC50 (hERG) is on record?
A: 316 nM

Q: And the IC50 (5HT3A/B)?
A: 6.76 µM

Q: And the IC50 (Alpha2B)?
A: 2.51 µM

Q: And the IC50 (5HT2A)?
A: 363 nM

Q: And the IC50 (5HT2B)?
A: 66.1 nM

Q: And the IC50 (5HT2C)?
A: 4.37 µM

Q: For COc1cc(N)c(Cl)cc1C(=O)NC1CCN(CCCOc2ccc(F)cc2)CC1(F)F (racemic) [(±)-17, 4-amino-5-chloro-N-{3,3-difluoro-1-[3-(4-fluorophenoxy)-propyl]-piperidin-4-yl}-2-methoxybenzamide], which IC50 (hERG) is on record?
A: 7590 nM

Q: What about the IC50 (5HT3A/B) of the same compound?
A: > 10 µM

Q: And the IC50 (Alpha2B)?
A: > 10 µM

Q: And the IC50 (5HT2A)?
A: 1950 nM

Q: And the IC50 (5HT2B)?
A: 13.8 nM

Q: What about the IC50 (5HT2C) of the same compound?
A: 4.68 µM

Q: How did the IC50 (hERG) turn out when COc1cc(N)c(Cl)cc1C(=O)N[C@@H]1CCN(CCCOc2ccc(F)cc2)C[C@H]1F (single isomer, unassigned) [(+)-7, trans-4-amino-5-chloro-N-{3-fluoro-1-[3-(4-fluorophenoxy)-propyl]-piperidin-4-yl}-2-methoxybenzamide] was run?
A: 288 nM

Q: And the IC50 (5HT3A/B)?
A: > 10 µM

Q: And the IC50 (Alpha2B)?
A: 2.63 µM

Q: What about the IC50 (5HT2A) of the same compound?
A: 70.8 nM

Q: And the IC50 (5HT2B)?
A: 129 nM

Q: And the IC50 (5HT2C)?
A: 1.23 µM

Q: COc1cc(N)c(Cl)cc1C(=O)N[C@H]1CCN(CCCOc2ccc(F)cc2)C[C@H]1F (single isomer, unassigned) [(+)-12, cis-4-amino-5-chloro-N-{3-fluoro-1-[3-(4-fluorophenoxy)-propyl]-piperidin-4-yl}-2-methoxybenzamide] was tested. Which IC50 (hERG) did it give?
A: 178 nM

Q: What about the IC50 (5HT3A/B) of the same compound?
A: > 10 µM

Q: And the IC50 (Alpha2B)?
A: 3.39 µM

Q: And the IC50 (5HT2A)?
A: 324 nM

Q: And the IC50 (5HT2B)?
A: 148 nM

Q: And the IC50 (5HT2C)?
A: 5.01 µM

Q: What does the source list for COc1cc(N)c(Cl)cc1C(=O)N[C@@H]1CCN(CCCOc2ccc(F)cc2)C[C@H]1F (single isomer, unassigned) [(−)-7, trans-4-amino-5-chloro-N-{3-fluoro-1-[3-(4-fluorophenoxy)-propyl]-piperidin-4-yl}-2-methoxybenzamide]?
A: IC50 (hERG): 316 nM; pIC50 5HT3A/B (5HT3A/B): <5; IC50 (Alpha2B): 6.03 µM; IC50 (5HT2A): 759 nM; IC50 (5HT2B): 251 nM; IC50 (5HT2C): 3.72 µM

Q: COc1cc(N)c(Cl)cc1C(=O)N[C@H]1CCN(CCCOc2ccc(F)cc2)C[C@H]1F (single isomer, unassigned) [(−)-12, cis-4-amino-5-chloro-N-{3-fluoro-1-[3-(4-fluorophenoxy)-propyl]-piperidin-4-yl}-2-methoxybenzamide] was tested. Which IC50 (hERG) did it give?
A: 191 nM

Q: And the IC50 (5HT3A/B)?
A: 2.75 µM

Q: What about the IC50 (Alpha2B) of the same compound?
A: 5.25 µM

Q: And the IC50 (5HT2A)?
A: 490 nM

Q: What about the IC50 (5HT2B) of the same compound?
A: 72.4 nM

Q: What about the IC50 (5HT2C) of the same compound?
A: 6.61 µM

Q: COc1cc(N)c(Cl)cc1C(=O)NC1CCN(CCCOc2ccc(F)cc2)CC1(F)F (single isomer, unassigned) [Compound (−)-17, 4-amino-5-chloro-N-{3,3-difluoro-1-[3-(4-fluorophenoxy)-propyl]-piperidin-4-yl}-2-methoxybenzamide] was tested. Which “pIC50 hERG” value (hERG) did it give?
A: <5

Q: What about the “pIC50 5HT3A/B” value (5HT3A/B) of the same compound?
A: <5

Q: And the “pIC50 Alpha2B” value (Alpha2B)?
A: <5

Q: And the IC50 (5HT2A)?
A: 1740 nM

Q: And the IC50 (5HT2B)?
A: 7.24 nM

Q: And the IC50 (5HT2C)?
A: 6.61 µM

Q: How did the IC50 (hERG) turn out when COc1cc(N)c(Cl)cc1C(=O)NC1CCN(CCCOc2ccc(F)cc2)CC1(F)F (single isomer, unassigned; (+)) [(+)-17, 4-amino-5-chloro-N-{3,3-difluoro-1-[3-(4-fluorophenoxy)-propyl]-piperidin-4-yl}-2-methoxybenzamide] was run?
A: > 10000 nM

Q: What about the IC50 (5HT3A/B) of the same compound?
A: > 10 µM

Q: And the IC50 (Alpha2B)?
A: > 10 µM

Q: What about the IC50 (5HT2A) of the same compound?
A: 2570 nM

Q: And the IC50 (5HT2B)?
A: 51.3 nM

Q: And the IC50 (5HT2C)?
A: > 10 µM
